6 compounds from patent publication US20250059218A1, “ENPP1 Inhibitors and Methods of Modulating Immune Response” (The Board of Trustees of the Leland Stanford Junior …, priority 2019, published 2025) can be followed below.

One assay concerns the target mouse ENPP1 (Mus musculus (Mouse), UniProt P06802). Put plainly: ENPP1 enzyme activity assay using cGAMP as substrate (luciferase detection of AMP). The class given is biochemical.
The next assay concerns 4T1-Luc tumors. The assay can be described thus: 4T1-Luc tumor mouse model (tumor volume, survival).
The test system of another assay is CD14+ PBMCs. The assay can be described thus: Stimulation of CD14+ PBMCs with extracellular cGAMP (IFNB1 RT-qPCR). The format is cell-based, human. Conditions: submicromolar soluble cGAMP.
The mark [1] stands for this setting: ENPP1 enzyme activity, second activity table (titled TABLE 2, Compounds; column without head), read-out: IC50.

Read-outs that look alike come from different tables or passages of the source. Where only a bound is given, the exact number is not on record here.

Sequence of mouse ENPP1 (P06802 85-906): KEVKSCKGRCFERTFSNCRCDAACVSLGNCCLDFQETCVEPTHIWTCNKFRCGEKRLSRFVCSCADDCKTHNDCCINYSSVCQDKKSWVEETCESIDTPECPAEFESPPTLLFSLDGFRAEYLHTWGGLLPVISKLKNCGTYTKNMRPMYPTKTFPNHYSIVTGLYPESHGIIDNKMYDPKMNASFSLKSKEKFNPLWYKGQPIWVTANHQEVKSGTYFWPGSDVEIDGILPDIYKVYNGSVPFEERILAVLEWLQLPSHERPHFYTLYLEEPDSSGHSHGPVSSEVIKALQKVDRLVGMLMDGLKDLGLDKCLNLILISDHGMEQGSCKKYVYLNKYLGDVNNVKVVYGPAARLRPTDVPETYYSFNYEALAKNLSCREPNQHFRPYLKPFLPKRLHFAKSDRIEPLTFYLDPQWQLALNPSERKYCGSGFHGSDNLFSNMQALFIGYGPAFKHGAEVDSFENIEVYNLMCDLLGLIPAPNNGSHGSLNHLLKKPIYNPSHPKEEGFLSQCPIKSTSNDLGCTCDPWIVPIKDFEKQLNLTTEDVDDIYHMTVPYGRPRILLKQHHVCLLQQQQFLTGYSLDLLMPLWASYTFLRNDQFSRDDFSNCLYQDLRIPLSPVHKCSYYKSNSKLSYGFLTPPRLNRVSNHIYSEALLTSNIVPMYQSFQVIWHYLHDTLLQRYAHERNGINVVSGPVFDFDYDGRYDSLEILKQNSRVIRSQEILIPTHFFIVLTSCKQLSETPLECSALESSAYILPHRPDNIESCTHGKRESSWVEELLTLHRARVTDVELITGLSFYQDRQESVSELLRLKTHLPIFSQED

What is called IC50 is the concentration that inhibits the measured activity by half. For the compound `COc1cc2ncnc(Nc3ccc(CP(=O)(O)O)cc3)c2cc1OC` [Compound 3], at mouse ENPP1 (ENPP1 enzyme activity, Table 4, read-out: IC50), the IC50 is 50 to 100 nM.
`COc1cc2ncnc(NCc3ccc(OP(O)(O)=S)cc3)c2cc1OC` [Compound 7] came in with an IC50 on mouse ENPP1 of 50 to 100 nM.
Turning to `COc1ccc2ncc(C#N)c(N3CCC(CCP(=O)(O)O)CC3)c2c1` [Compounds 44], the concentration for half-maximal inhibition (IC50) on mouse ENPP1 (setting [1]) is 50 to 100 nM.
Regarding `COc1cc2ncc(C#N)c(N3CCC(CCOP(O)(O)=S)CC3)c2cc1OC` [Compounds 202], the 50% inhibitory concentration (IC50) against mouse ENPP1 lay within 50 to 100 nM.
Take `COc1cccc2c(N3CCC(CCP(=O)(O)O)CC3)c(C#N)c(/C=C\c3cccnc3)nc12` [Compounds 206]: at mouse ENPP1 (setting [1]), the concentration for half-maximal inhibition (IC50) is > 100 nM.
As for `Nc1nc2c(ncn2[C@@H]2O[C@@H]3COP(=O)(O)O[C@H]4[C@@H](O)[C@H](n5cnc6c(N)ncnc65)O[C@@H]4COP(=O)(O)O[C@@H]2[C@@H]3O)c(=O)[nH]1` [cGAMP, cyclic guanosine monophosphate-adenosine monophosphate], the “effect over IR treatment” value in the assay on 4T1-Luc tumors (20 Gy IR + intratumoral 10 μg cGAMP alone) was “had no effect over IR treatment”. Further, in the assay on 4T1-Luc tumors (ENPP1−/− 4T1-Luc tumors, 20 Gy IR + intratumoral cGAMP, no anti-CTLA-4), the mice cured is recorded as 30%. In the assay on CD14+ PBMCs, the IFNB1 response entry is “upregulating IFNB1”.
